Source: patent publication US8507684B2, “1-cyclopropyl-8-methyl-7-[5-methyl-6-(methylamino)-3-pyridinyl]-4-oxo-1,4-dihydro-3-quinolinecarboxylic acid salts” (Ferrer Internacional S.A., priority 2010, dated 2013)

Test: Aqueous solubility of the salts determined by HPLC
Assay type: physicochemical
Settings: for pH: pH of Table 2 for the aqueous solubility samples (water, 2 h at 20° C.); for solubility at 2 h: thermodynamic from solid, read-out: Solubility in H2O
Protocol: To determine the aqueous solubility of the salts, suspensions of the salts were shaken 2 h at 20° C. and 400 rpm. Afterwards the mixtures were filtered (0.1 μm centrifuge filter) and the concentrations were determined by HPLC.

[1] = suspension in water shaken 2 h at 20° C. and 400 rpm, filtered (0.1 μm), concentration by HPLC

| Compound | solubility in water (in words) (general statement, no conditions given) | pH | solubility at 2 h [1] [µg/mL] | Solubility in H2O [1] [mg/mL] |
| --- | --- | --- | --- | --- |
| CNc1ncc(-c2ccc3c(=O)c(C(=O)O)cn(C4CC4)c3c2C)cc1C [Free drug, 1-Cyclopropyl-8-methyl-7-[5-methyl-6-(methylamino)-3-pyridinyl]-4-oxo-1,4-dihydro-3-quinolinecarboxylic acid] | low solubility in water | 8.5 | 19 |  |
| CNc1ncc(-c2ccc3c(=O)c(C(=O)O)cn(C4CC4)c3c2C)cc1C.O=C(O)CC(O)(CC(=O)O)C(=O)O [Citrate, 1-Cyclopropyl-8-methyl-7-[5-methyl-6-(methylamino)-3-pyridinyl]-4-oxo-1,4-dihydro-3-quinolinecarboxylic acid citrate salt] |  | 2.7 | 5220 |  |
| CNc1ncc(-c2ccc3c(=O)c(C(=O)O)cn(C4CC4)c3c2C)cc1C.O=C(O)C(O)C(O)C(=O)O [L-Tartrate, 1-Cyclopropyl-8-methyl-7-[5-methyl-6-(methylamino)-3-pyridinyl]-4-oxo-1,4-dihydro-3-quinolinecarboxylic acid L-tartrate salt] |  | 2.5 | 4600 |  |
| CNc1ncc(-c2ccc3c(=O)c(C(=O)O)cn(C4CC4)c3c2C)cc1C.Cl.O [Hydrochloride monohydrate, 1-Cyclopropyl-8-methyl-7-[5-methyl-6-(methylamino)-3-pyridinyl]-4-oxo-1,4-dihydro-3-quinolinecarboxylic acid hydrochloride monohydrate salt] |  | 2.8 | 2000 |  |
| 1-Cyclopropyl-8-methyl-7-[5-methyl-6-(methylamino)-3-pyridinyl]-4-oxo-1,4-dihydro-3-quinolinecarboxylic acid hemi-fumarate salt |  | 4.8 |  | 0.0897 |
| CNc1ncc(-c2ccc3c(=O)c(C(=O)O)cn(C4CC4)c3c2C)cc1C.CS(=O)(=O)O [Mesylate, 1-Cyclopropyl-8-methyl-7-[5-methyl-6-(methylamino)-3-pyridinyl]-4-oxo-1,4-dihydro-3-quinolinecarboxylic acid mesylate salt] |  | 2.4 | 113000 |  |
| CNc1ncc(-c2ccc3c(=O)c(C(=O)[O-])cn(C4CC4)c3c2C)cc1C.[Na+] [Sodium, 1-Cyclopropyl-8-methyl-7-[5-methyl-6-(methylamino)-3-pyridinyl]-4-oxo-1,4-dihydro-3-quinolinecarboxylic acid sodium salt] |  | 9.0 | 159000 |  |
| CNc1ncc(-c2ccc3c(=O)c(C(=O)[O-])cn(C4CC4)c3c2C)cc1C.[K+] [Potassium, 1-Cyclopropyl-8-methyl-7-[5-methyl-6-(methylamino)-3-pyridinyl]-4-oxo-1,4-dihydro-3-quinolinecarboxylic acid potassium salt] |  | 9.8 | 109000 |  |
| CNc1ncc(-c2ccc3c(=O)c(C(=O)O)cn(C4CC4)c3c2C)cc1C.O=C(O)/C=C\C(=O)O [Maleate, 1-Cyclopropyl-8-methyl-7-[5-methyl-6-(methylamino)-3-pyridinyl]-4-oxo-1,4-dihydro-3-quinolinecarboxylic acid maleate salt] |  | 5.3 | 149 |  |
